Experimental data: patent US9738634B2, “Heterocyclic amide compound and herbicide” (SYNGENTA PARTICIPATIONS AG, priority 2013, dated 2017)

Assays:
Assay type in all cases: in vivo
[1] = tested on: wild oat; test: Test Example 4: weedkilling efficacy by foliar treatment; G: wild oat; details: treatment dosage 315 g/ha
Summary of the method: (§1)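 Seeds are spot-sown into sterilized diluvial soil and covered with about 1.5 cm of soil. After 14 days' greenhouse growth at 25 to 30° C, plants are sprayed on stems and leaves with diluted emulsion at the stated g/ha rate, then scored at 3 weeks.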

[2] = tested on: fig-leafed goosefoot; test: Test Example 4: weedkilling efficacy by foliar treatment; M: fig-leafed goosefoot; details: treatment dosage 315 g/ha
Summary of the method: as §1

[3] = tested on: wheat; test: Test Example 3: soil treatment, effect on crop; e: wheat; details: treatment dosage 315 g/ha
Summary of the method: (§2)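 Crop and weed responses were judged three weeks after a uniform surface spray of the water-diluted emulsion at the given g/ha rate. Seeds sat beneath about 1.5 cm of sterilized diluvial soil, and boxes stood in a greenhouse at 25 to 30° C.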

[4] = tested on: transplanted rice; test: Test Example 1: preemergent weed treatment in the submerged state, effect on crop; a: transplanted rice; details: treatment dosage 252 g/ha
Summary of the method: (§3)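 Visual scores against set criteria were taken 3 weeks after treatment. Compounds, as diluted emulsions at specified g/ha, went onto the water surface of 4 cm-flooded alluvial soil pots on the day weeds were sown and 2.5-leaf rice was transplanted; greenhouse held 25–30 °C.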

[5] = tested on: green foxtail; test: Test Example 4: weedkilling efficacy by foliar treatment; E: green foxtail; details: treatment dosage 315 g/ha
Summary of the method: as §1

[6] = tested on: birds-eye speedwell; test: Test Example 4: weedkilling efficacy by foliar treatment; p: birds-eye speedwell; details: treatment dosage 315 g/ha
Summary of the method: as §1

[7] = tested on: bulrush; test: Test Example 1: weedkilling efficacy, preemergent weed treatment in the submerged state; B: bulrush; details: treatment dosage 252 g/ha
Summary of the method: as §3

[8] = tested on: Indian mallow; test: Test Example 4: weedkilling efficacy by foliar treatment; K: Indian mallow; details: treatment dosage 315 g/ha
Summary of the method: as §1

[9] = tested on: beet; test: Test Example 4: foliar treatment, effect on crop; f: beet; details: treatment dosage 315 g/ha
Summary of the method: as §1

[10] = tested on: black-grass; test: Test Example 4: weedkilling efficacy by foliar treatment; H: black-grass; details: treatment dosage 315 g/ha
Summary of the method: as §1

[11] = tested on: crabgrass; test: Test Example 4: weedkilling efficacy by foliar treatment; D: crabgrass; details: treatment dosage 315 g/ha
Summary of the method: as §1

[12] = tested on: chickweed; test: Test Example 4: weedkilling efficacy by foliar treatment; N: chickweed; details: treatment dosage 315 g/ha
Summary of the method: as §1

[13] = tested on: catchweed; test: Test Example 4: weedkilling efficacy by foliar treatment; O: catchweed; details: treatment dosage 315 g/ha
Summary of the method: as §1

[14] = tested on: redroot pigweed; test: Test Example 3: weedkilling efficacy through soil treatment; L: redroot pigweed; details: treatment dosage 315 g/ha
Summary of the method: as §2

[15] = tested on: soybean; test: Test Example 4: foliar treatment, effect on crop; d: soybean; details: treatment dosage 315 g/ha
Summary of the method: as §1

[16] = tested on: Italian ryegrass; test: Test Example 3: weedkilling efficacy through soil treatment; I: Italian ryegrass; details: treatment dosage 315 g/ha
Summary of the method: as §2

[17] = tested on: barnyard grass; test: Test Example 1: weedkilling efficacy, preemergent weed treatment in the submerged state; A: barnyard grass; details: treatment dosage 252 g/ha
Summary of the method: as §3

[18] = tested on: corn; test: Test Example 3: soil treatment, effect on crop; c: corn; details: treatment dosage 315 g/ha
Summary of the method: as §2

[19] = tested on: beet; test: Test Example 3: soil treatment, effect on crop; f: beet; details: treatment dosage 315 g/ha
Summary of the method: as §2

[20] = tested on: chickweed; test: Test Example 3: weedkilling efficacy through soil treatment; N: chickweed; details: treatment dosage 315 g/ha
Summary of the method: as §2

[21] = tested on: directly sown rice; test: Test Example 4: foliar treatment, effect on crop; b: directly sown rice; details: treatment dosage 315 g/ha
Summary of the method: as §1

[22] = tested on: Italian ryegrass; test: Test Example 4: weedkilling efficacy by foliar treatment; I: Italian ryegrass; details: treatment dosage 315 g/ha
Summary of the method: as §1

[23] = tested on: green foxtail; test: Test Example 3: weedkilling efficacy through soil treatment; E: green foxtail; details: treatment dosage 315 g/ha
Summary of the method: as §2

[24] = tested on: wheat; test: Test Example 4: foliar treatment, effect on crop; e: wheat; details: treatment dosage 315 g/ha
Summary of the method: as §1

[25] = tested on: black-grass; test: Test Example 3: weedkilling efficacy through soil treatment; H: black-grass; details: treatment dosage 315 g/ha
Summary of the method: as §2

[26] = tested on: oval-leafed pondweed; test: Test Example 1: weedkilling efficacy, preemergent weed treatment in the submerged state; C: oval-leafed pondweed; details: treatment dosage 252 g/ha
Summary of the method: as §3

[27] = tested on: bulrush; test: Test Example 2: weedkilling efficacy, growth period weed treatment in the submerged state; B: bulrush; details: treatment dosage 252 g/ha
Summary of the method: (§4)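 Barnyard grass, bulrush and oval-leafed pondweed sown in alluvial soil under 4 cm flooding, greenhouse 25 to 30° C. At 1-2 leaf stage, water-diluted emulsion applied to the water surface at stated g/ha dosages; effects scored 3 weeks later.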

[28] = tested on: Indian mallow; test: Test Example 3: weedkilling efficacy through soil treatment; K: Indian mallow; details: treatment dosage 315 g/ha
Summary of the method: as §2

[29] = tested on: oval-leafed pondweed; test: Test Example 2: weedkilling efficacy, growth period weed treatment in the submerged state; C: oval-leafed pondweed; details: treatment dosage 252 g/ha
Summary of the method: as §4

[30] = tested on: redroot pigweed; test: Test Example 4: weedkilling efficacy by foliar treatment; L: redroot pigweed; details: treatment dosage 315 g/ha
Summary of the method: as §1

[31] = tested on: fig-leafed goosefoot; test: Test Example 3: weedkilling efficacy through soil treatment; M: fig-leafed goosefoot; details: treatment dosage 315 g/ha
Summary of the method: as §2

[32] = tested on: soybean; test: Test Example 3: soil treatment, effect on crop; d: soybean; details: treatment dosage 315 g/ha
Summary of the method: as §2

[33] = tested on: crabgrass; test: Test Example 3: weedkilling efficacy through soil treatment; D: crabgrass; details: treatment dosage 315 g/ha
Summary of the method: as §2

[34] = tested on: barnyard grass; test: Test Example 2: weedkilling efficacy, growth period weed treatment in the submerged state; A: barnyard grass; details: treatment dosage 252 g/ha
Summary of the method: as §4

[35] = tested on: wild oat; test: Test Example 3: weedkilling efficacy through soil treatment; G: wild oat; details: treatment dosage 315 g/ha
Summary of the method: as §2

[36] = tested on: corn; test: Test Example 4: foliar treatment, effect on crop; c: corn; details: treatment dosage 315 g/ha
Summary of the method: as §1

Row | Compound | G (wild oat) weedkilling efficacy grade [1] | M (fig-leafed goosefoot) weedkilling efficacy grade [2] | e (wheat) effect on crop grade [3] | a (transplanted rice) effect on crop grade [4] | E (green foxtail) weedkilling efficacy grade [5] | P (birds-eye speedwell) weedkilling efficacy grade [6] | B (bulrush) weedkilling efficacy grade [7] | K (Indian mallow) weedkilling efficacy grade [8] | f (beet) effect on crop grade [9] | H (black-grass) weedkilling efficacy grade [10] | D (crabgrass) weedkilling efficacy grade [11] | N (chickweed) weedkilling efficacy grade [12] | O (catchweed) weedkilling efficacy grade [13] | L (redroot pigweed) weedkilling efficacy grade [14] | d (soybean) effect on crop grade [15] | I (Italian ryegrass) weedkilling efficacy grade [16] | A (barnyard grass) weedkilling efficacy grade [17] | c (corn) effect on crop grade [18] | f (beet) effect on crop grade [19] | N (chickweed) weedkilling efficacy grade [20] | further results
1 | CC1=C(c2ccccc2)C(=O)N(C(C)(C)C(=O)Nc2cncc(Cl)c2)CO1 [B-3-02] | 5 (weed kill ratio 90% or more, (practically complete withering)) | 2 (weed kill ratio 20% or more, less than 40%) | 5 (weed kill ratio 90% or more, (practically complete withering)) | 3 (weed kill ratio 40% or more, less than 70%) | 5 (weed kill ratio 90% or more, (practically complete withering)) | 3 (weed kill ratio 40% or more, less than 70%) | 5 (weed kill ratio 90% or more, (practically complete withering)) | 4 (weed kill ratio 70% or more, less than 90%) | 3 (weed kill ratio 40% or more, less than 70%) | 5 (weed kill ratio 90% or more, (practically complete withering)) | 5 (weed kill ratio 90% or more, (practically complete withering)) | 0 (weed kill ratio 5% or less (practically no effect)) | 4 (weed kill ratio 70% or more, less than 90%) | 5 (weed kill ratio 90% or more, (practically complete withering)) | 4 (weed kill ratio 70% or more, less than 90%) | 5 (weed kill ratio 90% or more, (practically complete withering)) | 5 (weed kill ratio 90% or more, (practically complete withering)) | 3 (weed kill ratio 40% or more, less than 70%) | 4 (weed kill ratio 70% or more, less than 90%) | 4 (weed kill ratio 70% or more, less than 90%) | b (directly sown rice) effect on crop grade [21]: 5 (weed kill ratio 90% or more, (practically complete withering)); I (Italian ryegrass) weedkilling efficacy grade [22]: 5 (weed kill ratio 90% or more, (practically complete withering)); E (green foxtail) weedkilling efficacy grade [23]: 5 (weed kill ratio 90% or more, (practically complete withering)); e (wheat) effect on crop grade [24]: 3 (weed kill ratio 40% or more, less than 70%); H (black-grass) weedkilling efficacy grade [25]: 5 (weed kill ratio 90% or more, (practically complete withering)); C (oval-leafed pondweed) weedkilling efficacy grade [26]: 5 (weed kill ratio 90% or more, (practically complete withering)); B (bulrush) weedkilling efficacy grade [27]: 5 (weed kill ratio 90% or more, (practically complete withering)); K (Indian mallow) weedkilling efficacy grade [28]: 3 (weed kill ratio 40% or more, less than 70%); C (oval-leafed pondweed) weedkilling efficacy grade [29]: 5 (weed kill ratio 90% or more, (practically complete withering)); L (redroot pigweed) weedkilling efficacy grade [30]: 3 (weed kill ratio 40% or more, less than 70%); M (fig-leafed goosefoot) weedkilling efficacy grade [31]: 4 (weed kill ratio 70% or more, less than 90%); d (soybean) effect on crop grade [32]: 0 (weed kill ratio 5% or less (practically no effect)); D (crabgrass) weedkilling efficacy grade [33]: 5 (weed kill ratio 90% or more, (practically complete withering)); A (barnyard grass) weedkilling efficacy grade [34]: 4 (weed kill ratio 70% or more, less than 90%); G (wild oat) weedkilling efficacy grade [35]: 5 (weed kill ratio 90% or more, (practically complete withering)); c (corn) effect on crop grade [36]: 4 (weed kill ratio 70% or more, less than 90%)
2 | CC1=C(c2ccccc2)C(=O)N(C(C)(C)C(=O)Nc2ccnc(Cl)c2)CO1 [B-4-03] | 5 (weed kill ratio 90% or more, (practically complete withering)) | 3 (weed kill ratio 40% or more, less than 70%) | 1 (weed kill ratio 5% or more, less than 20%) | 4 (weed kill ratio 70% or more, less than 90%) | 5 (weed kill ratio 90% or more, (practically complete withering)) | 4 (weed kill ratio 70% or more, less than 90%) | 5 (weed kill ratio 90% or more, (practically complete withering)) | 4 (weed kill ratio 70% or more, less than 90%) | 4 (weed kill ratio 70% or more, less than 90%) | 5 (weed kill ratio 90% or more, (practically complete withering)) | 5 (weed kill ratio 90% or more, (practically complete withering)) | 1 (weed kill ratio 5% or more, less than 20%) | 5 (weed kill ratio 90% or more, (practically complete withering)) | 5 (weed kill ratio 90% or more, (practically complete withering)) | 4 (weed kill ratio 70% or more, less than 90%) | 5 (weed kill ratio 90% or more, (practically complete withering)) | 5 (weed kill ratio 90% or more, (practically complete withering)) | 2 (weed kill ratio 20% or more, less than 40%) | 4 (weed kill ratio 70% or more, less than 90%) | 3 (weed kill ratio 40% or more, less than 70%) | b (directly sown rice) effect on crop grade [21]: 5 (weed kill ratio 90% or more, (practically complete withering)); I (Italian ryegrass) weedkilling efficacy grade [22]: 5 (weed kill ratio 90% or more, (practically complete withering)); E (green foxtail) weedkilling efficacy grade [23]: 5 (weed kill ratio 90% or more, (practically complete withering)); e (wheat) effect on crop grade [24]: 0 (weed kill ratio 5% or less (practically no effect)); H (black-grass) weedkilling efficacy grade [25]: 5 (weed kill ratio 90% or more, (practically complete withering)); C (oval-leafed pondweed) weedkilling efficacy grade [26]: 5 (weed kill ratio 90% or more, (practically complete withering)); B (bulrush) weedkilling efficacy grade [27]: 5 (weed kill ratio 90% or more, (practically complete withering)); K (Indian mallow) weedkilling efficacy grade [28]: 3 (weed kill ratio 40% or more, less than 70%); C (oval-leafed pondweed) weedkilling efficacy grade [29]: 4 (weed kill ratio 70% or more, less than 90%); L (redroot pigweed) weedkilling efficacy grade [30]: 3 (weed kill ratio 40% or more, less than 70%); M (fig-leafed goosefoot) weedkilling efficacy grade [31]: 5 (weed kill ratio 90% or more, (practically complete withering)); d (soybean) effect on crop grade [32]: 3 (weed kill ratio 40% or more, less than 70%); D (crabgrass) weedkilling efficacy grade [33]: 5 (weed kill ratio 90% or more, (practically complete withering)); A (barnyard grass) weedkilling efficacy grade [34]: 4 (weed kill ratio 70% or more, less than 90%); G (wild oat) weedkilling efficacy grade [35]: 4 (weed kill ratio 70% or more, less than 90%); c (corn) effect on crop grade [36]: 4 (weed kill ratio 70% or more, less than 90%)
